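Cultured in 96-well plates, cells were exposed to test compound for 48 hours across five concentrations. The concentration for 50% growth inhibition is given as GI50. At the TGI there is no net growth.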
How the values were obtained:
Experiment in all cases: NCI-60 cell line screen, 48 h
A498 renal = system: A498 renal
NCI-H460 lung = system: NCI-H460 lung
NCI-H522 lung = system: NCI-H522 lung
OVCAR-3 ovarian = system: OVCAR-3 ovarian
OVCAR-5 ovarian = system: OVCAR-5 ovarian
SF-268 CNS = system: SF-268 CNS
SNB-75 CNS = system: SNB-75 CNS
SR leukemia = system: SR leukemia
MCF7 breast = system: MCF7 breast
HS 578T breast = system: HS 578T breast

SMILES | TGI (A498 renal) [µM] | TGI (NCI-H460 lung) [µM] | TGI (NCI-H522 lung) [µM] | TGI (OVCAR-3 ovarian) [µM] | TGI (OVCAR-5 ovarian) [µM] | TGI (SF-268 CNS) [µM] | TGI (SNB-75 CNS) [µM] | TGI (SR leukemia) [µM] | GI50 (MCF7 breast) [µM] | TGI (MCF7 breast) [µM] | GI50 (NCI-H460 lung) [µM] | GI50 (NCI-H522 lung) [µM] | GI50 (OVCAR-5 ovarian) [µM] | GI50 (SF-268 CNS) [µM] | GI50 (SR leukemia) [µM] | GI50 (HS 578T breast) [µM] | TGI (HS 578T breast) [µM] | GI50 (OVCAR-3 ovarian) [µM] | GI50 (SNB-75 CNS) [µM] | GI50 (A498 renal) [µM]
COC(=O)C(C(=O)C(=O)Nc1ccc([N+](=O)[O-])cc1)c1nc2cc(C)c(C)cc2[nH]c1=O (centres undefined) | > 100 | > 100 | > 100 | > 100 | > 100 | > 100 | > 100 | > 100 |  |  |  |  |  |  |  |  |  |  |  | 
O=c1nc(-c2ccccc2)scc1-c1ccccc1 |  | > 100 | > 100 | > 100 |  | > 100 | > 100 | > 100 |  |  |  |  |  |  |  |  |  |  |  | 
CC1=C2[C@@H](c3ccccc3)C3C=CC2(c2ccccc23)N(C(=O)Nc2cccc3ccccc23)C1=O (some centres undefined) | > 100 |  |  | > 100 | > 100 | > 100 |  | > 100 |  |  |  |  |  |  |  |  |  |  |  | 
CNC(=O)OCc1cc2ccncc2c2c1[nH]c1ccccc12 |  | > 100 | > 100 | > 100 | > 100 | > 41.8 | > 80.3 | > 33.2 |  |  |  |  |  |  |  |  |  |  |  | 
O=C1C(Cl)=C(Nc2cccc(O)c2)C(=O)N1c1ccc(Cl)cc1Cl |  | > 100 | 32.9 |  | > 100 | > 100 |  | 26.9 | 19.8 | 63.3 | 27.5 | 13.8 | 40.2 | 28.4 | 2.76 |  |  |  |  | 
C=CCCC(O)c1ccc(CCCCCCCCCCC)o1 (centres undefined) |  | > 100 | 32.8 | 35.9 | 35.9 | 43.9 | 28.6 |  | 20.3 | 50.9 | 28.9 | 17 | 18.3 | 19.3 |  | 12.6 | 30.2 | 16.1 | 14.2 | 
N#Cc1nc(Nc2ccc(Cl)cc2)sc1N | 56 | > 74.7 | 11.3 | > 61.8 | > 46.4 | > 77.9 | > 71.1 | 11.6 |  |  |  |  |  |  |  |  |  |  |  | 
COc1cc2c(cc1OC)C1(c3ccccc3)ON=C(c3ccccc3)N1CS2 (centres undefined) | > 100 | > 100 | > 100 | > 100 | > 100 | > 100 | > 100 | > 100 |  |  |  |  |  |  |  |  |  |  |  | 
Cc1nn(-c2ccccc2)c(C)c1/C=N/N1CCN(Cc2ccccc2)CC1 |  | > 100 | > 100 |  | > 100 | > 100 | > 100 | 35.1 | 31 | > 100 | 33.5 | 78.5 | > 100 | 38 | 13.8 | > 100 | > 100 |  | 99 | 
Cc1csc(-c2ccc3c(c2)COC3(CCCN(C)C)c2ccc(F)cc2)c1 (centres undefined) |  | 3.5 | 4.31 | 3.37 | 3.05 | 3.26 | 2.61 |  | 1.7 | 3.38 | 1.9 | 2.06 | 1.63 | 1.68 |  | 1.93 | 4.44 | 1.81 | 1.2 | 
O=C(CC(=O)c1cccc([N+](=O)[O-])c1)C(=O)Nc1nc([N+](=O)[O-])cs1 | > 100 | > 100 | > 100 | > 100 | > 100 | > 100 |  | > 100 |  |  |  |  |  |  |  |  |  |  |  | 
CC1OC(n2cc(I)c(=O)[nH]c2=O)C=CC1=O (centres undefined) | 29.6 | 35.1 |  | 31.5 | 39.7 | 27.1 | 31.1 | 32.2 |  |  |  |  |  |  |  |  |  |  |  | 
O=c1[nH]c(=O)n(C2OC(CO)C(O)C2O)cc1OCc1ccccc1 (centres undefined) | > 100 | > 100 | > 100 | > 100 | > 100 | > 100 | > 100 | > 67.5 |  |  |  |  |  |  |  |  |  |  |  | 
CCCCCCCCCCNC(=S)OCCCC | 62.6 | 43.5 | 42.4 |  | 29 | 58.7 | 86.7 | 38 |  |  |  |  |  |  |  |  |  |  |  | 
CN1CCc2cc(O)c3cc2C1Cc1ccc(cc1)Oc1cc(ccc1O)CC1c2c(cc4c(c2O3)OCO4)CCN1C (centres undefined) |  | > 100 |  | > 100 | 87.7 | > 100 | 39.4 | > 100 |  |  |  |  |  |  |  |  |  |  |  | 
CCOC1=C2C(C)(CCC3[C@@]4(C)C=CC(=O)C(C)(C)C4CC(O)[C@@]23C)C(c2ccoc2)C1=O (some centres undefined) | 33.9 | 28.4 |  | 33.4 | 36 | > 100 | > 100 |  |  |  |  |  |  |  |  |  |  |  |  | 
C[CH2][Sn]([Cl])([CH2]C)[CH2]C |  | 5.44 | 3.15 | 6.61 | 8.33 | 7.94 | 0.549 | 5.01 |  |  | 1.67 | 0.705 | 3.33 | 1.59 | 0.481 |  |  | 1.34 | 0.255 | 

SMILES | TGI (A498 renal) [µM] | TGI (NCI-H460 lung) [µM] | TGI (NCI-H522 lung) [µM] | TGI (OVCAR-3 ovarian) [µM] | TGI (OVCAR-5 ovarian) [µM] | TGI (SF-268 CNS) [µM] | TGI (SNB-75 CNS) [µM] | TGI (SR leukemia) [µM] | GI50 (MCF7 breast) [µM] | TGI (MCF7 breast) [µM] | GI50 (NCI-H460 lung) [µM] | GI50 (NCI-H522 lung) [µM] | GI50 (OVCAR-5 ovarian) [µM] | GI50 (SF-268 CNS) [µM] | GI50 (SR leukemia) [µM] | GI50 (HS 578T breast) [µM] | TGI (HS 578T breast) [µM] | GI50 (OVCAR-3 ovarian) [µM] | GI50 (SNB-75 CNS) [µM] | GI50 (A498 renal) [µM]
N=C(N)c1ccc(-c2ccc(-c3ccc(Cl)c(Cl)c3)o2)nc1 | 28.5 |  | 4.36 |  | 3.01 | 4.73 | 2.69 | > 100 |  |  |  | 1.86 | 1.57 | 2.08 | 0.559 | 1.89 | 4.36 |  | 1.35 | 9.98
COc1ccc2c([nH]c3cc(O)c(C)cc32)c1CC=C(C)C |  | 14.1 | 17.3 | 12.4 | > 25 | > 25 |  | > 25 |  |  | 5.56 | 5.92 |  | 9.66 | 7.19 |  |  |  |  | 
C/C=C/C=C\C(=O)C1c2cccc(O)c2C(=O)c2c(O)cc(C)cc21 (centres undefined) | 7.76 | 1.47 | 3.06 | 2.2 | 3.33 | 2.05 | 2.74 |  |  |  |  |  |  |  |  |  |  |  |  | 
COc1ccc2cc(C(=O)/C=C/c3ccco3)ccc2c1 |  | 52.6 | 58.5 | > 100 |  | 45.5 | > 100 | 68.2 |  |  | 22.7 | 19.7 |  | 20 | 16.2 |  |  | 44 | > 100 | 
CCOC(=O)/C(=C/c1ccc(Cl)cc1)N(CC)CC | > 100 | > 100 | > 100 |  | > 100 | > 100 | > 100 | > 100 |  |  |  |  |  |  |  |  |  |  |  | 
Cc1ccc(C(O)/C(=N/N)c2nc3ccc([N+](=O)[O-])cc3[nH]c2=O)cc1 (centres undefined) |  | > 100 | > 100 | > 100 | > 100 | > 100 | > 100 | > 100 |  |  |  |  |  |  |  |  |  |  |  | 
COc1cccc(N2C(=O)[C@H]3[C@H]4CC(C(C)(C)C)CC[C@H]4c4c([nH]c5ccccc45)[C@H]3C2=O)c1 (some centres undefined) |  |  | 45.7 | 36.2 |  | 54.7 | 30.1 |  |  |  |  |  |  |  |  |  |  |  |  | 
C[C@]12CC/C(=N\OC(=O)Nc3ccccc3)C=C1CC[C@@H]1C2CC[C@@]2(C)C1CC[C@@H]2OC(=O)Nc1ccccc1 (some centres undefined) | > 100 | > 100 |  | > 100 | > 100 | > 100 | > 100 |  |  |  |  |  |  |  |  |  |  |  |  | 
[O]=[W](=[O])([OH])[OH] | > 100 | > 100 | > 100 | > 100 | > 100 | > 100 | > 100 | > 100 | > 100 | > 100 | > 100 | > 100 | > 100 | > 100 | > 100 |  |  | > 100 | > 100 | > 100
COC(=O)C1=C(C)N(NC(=O)c2cccc(Cl)c2)C(C)(O)C12CCOC2=O (centres undefined) | > 100 | > 100 | > 100 | > 100 | > 100 | > 100 | > 100 | > 100 |  |  |  |  |  |  |  |  |  |  |  | 
NC(=O)OCC(COc1ccc(Cl)cc1)OC(=O)c1cc([N+](=O)[O-])cc([N+](=O)[O-])c1 (centres undefined) | > 100 | > 100 | > 100 | > 100 | > 100 | > 100 | > 100 | > 100 |  |  |  |  |  |  |  |  |  |  |  | 
O=C(NCCCCCCNC(=O)NC1OCC(O)C(O)C1O)NC1OCC(O)C(O)C1O (centres undefined) |  | > 100 | > 100 | > 100 | > 100 | > 100 | > 100 | > 100 |  |  |  |  |  |  |  |  |  |  |  | 
Cc1ccc(S(=O)(=O)NC(=O)C#CCOC2CCCCO2)cc1 (centres undefined) | > 100 | > 100 |  | > 100 | > 100 |  | > 100 | > 100 |  |  |  |  |  |  |  |  |  |  |  | 
CCC[CH2][Ge]([CH2]CCC)([CH2]CCC)[O]C(=O)C(OC(C)=O)c1ccccc1 (centres undefined) | 24.3 | 20 | 8.88 | 8.52 | 17.5 | 27.8 | 25.2 |  |  |  | 1.24 | 0.304 | 3.36 | 1.46 |  |  |  | 0.731 | 0.973 | 11.4
CCCCCCCCCCCCCC(=O)OC1C(CO)OC(=O)C1O (centres undefined) | > 100 | > 100 |  | > 100 | > 100 | > 100 | > 100 |  |  |  |  |  |  |  |  |  |  |  |  | 
N#CC(C(=O)C(=O)Nc1ccc(Cl)c(Cl)c1)c1ccc(Cl)cc1 (centres undefined) | > 100 | 96.7 | 65.5 | > 100 | > 100 | > 100 | > 100 | > 100 |  |  |  |  |  |  |  |  |  |  |  | 

— PubChem BioAssay (NCI)
